Measured values as given in patent US10596151B2, “Methods and pharmaceutical compositions for reducing arterial stiffness with a combination of a therapeutic agent blocking the angiotensin receptor and a therapeutic agent inhibiting the NEP enzyme” (Novartis AG, priority 2015, dated 2020).
Several values for one entry are separate records, joined by “and”; a condition that tells them apart may be missing. Equal values may be shown once. Marks after values point to notes of the source that are not given here.

Columns and labels:
[1] = tested on: elderly patients (≥60 years) with essential hypertension; assay: […] study: central aortic pressures (CASP, CPP/CAPP, central DBP, central MAP) by SphygmoCor X-CEL; type: in vivo, human
Procedure: The term CAPP refers to central aortic PP. In the context of the present invention CAPP is measured with the SphygmoCor X-CEL System (AtCor Medical, Sydney, Australia) to non-invasively derive the ascending aortic pressure waveform from the brachial waveform using a validated generalised transfer function (GTF). A properly sized BP cuff is linked to a computer and software and the CASP, CAPP, augmentation pressure, and Alx are determined from the analysis of waveform by the system software. […]
The primary and secondary endpoints are changes from baseline in central aortic systolic pressure (CASP) and central aortic PP (CAPP) at week 12, respectively. Other secondary endpoints are the changes in CASP and CAPP at week 52. […] The primary variable will be analysed using a two-way analysis of covariance.
The SphygmoCor X-CEL System (AtCor Medical, Sydney, Australia) is being used to non-invasively derive the ascending aortic pressure waveform from the brachial waveform using a validated generalised transfer function (GTF).22 A properly sized BP cuff is linked to a computer and software and the CASP, CAPP, augmentation pressure, and Alx are determined from the analysis of waveform by the system software.
A sample size of 183 completers per group is targeted, which is calculated based on the primary efficacy variable, change from baseline in mean CASP at 12 weeks, assuming a standard deviation of 19 mm Hg. […] Assuming a 15% dropout rate, the total targeted sample size to be randomised is 432 patients (216 per group). The primary variable at the Week 12 endpoint will be analysed using a two-way analysis of covariance (ANCOVA), with treatment and region as factors and the baseline as a covariate. Mean CAPP at the Week 12 endpoint will be analysed using the same type of ANCOVA model used for the primary efficacy analysis. A two-sided significance at 0.05 level will be used for this analysis and a 95% confidence interval for the treatment difference will be provided.

[2] = tested on: elderly patients (≥60 years) with essential hypertension; assay: […] study: mean sitting (brachial) blood pressure and pulse pressure; type: in vivo, human
From the text: (§1) The study enrolled patient from 5 Dec. 2012 to 8 Apr. 2015.
Superiority testing is also planned for the key secondary efficacy assessment, i.e. the reduction in mean central aortic PP (CAPP) after 12 weeks of treatment, and other secondary efficacy assessments such as mean CASP and CAPP after 52 weeks of treatment. Mean aPWV, msSBP, msDBP, msPP, mean ambulatory (ma) BP, maPP, and MAP will also be measured after 12 and 52 weeks of treatment.

[3] = tested on: elderly patients (≥60 years) with essential hypertension; assay: […] study: 24-hour ambulatory brachial and central blood pressure (Mobil-O-Graph); type: in vivo, human
From the text: as §1
The 24-hour maCAP and maPWA will be monitored using the oscillometric device, Mobil-0-Graph (IEM, Stolberg, Germany) with integrated ARC solver algorithms (Austrian Institute of Technology, Vienna, Austria). The traditional Mobil-O-Graph ambulatory blood pressure monitoring (ABPM) device has been available for more than a decade and through several product generations.24-27 The actual blood pressure measuring unit was validated according to the British Hypertension Society (BHS) and the European Society of Hypertension (ESH) recommendations.24,26 The method equipped with a GTF to derive aortic pressure waveforms28 is based on brachial readings acquired in the course of the conventional pressure measurement at diastolic level.
During the signal acquisition procedure, the received raw signals are separated into single waves and checked for their plausibility by means of extreme values and corresponding wavelengths using a cross-correlation approach. Poor waveforms are removed from further processing. After applying the GTF to each single waveform, the procedure is repeated.
With respect to legal issues, the Mobil-O-Graph maPWA monitor with integrated ARC solver algorithms holds approvals from CE, FDA, and JPAL (amongst others).

[4] = tested on: elderly patients (≥60 years) with essential hypertension; assay: PARAMETER study: safety and tolerability assessments; conditions: 52-week study
From the text: The inclusion criteria in the study was designed to enroll patients which met the profile of elderly patients with systolic hypertension and a wide pulse pressure, a characteristic reflective of large artery (aortic) stiffness. […] The study enrolled patient from 5 Dec. 2012 to 8 Apr. 2015.
This was a 52-week study, involving 50 centers from 12 countries (across Europe, South America, Asia and the United States). […] After 12 weeks, patients with uncontrolled BP (msSBP>140 mmHg and/or mean sitting diastolic blood pressure [msDBP]>90 mmHg) were allowed the use of add-on antihypertensives (amlodipine [2.5-5.0 mg] and then hydrochlorothiazide [6.25-25.0 mg]) as needed, at an interval of 4 weeks up to Week 24.
Safety and tolerability assessments include regular monitoring and recording of all adverse events (AEs) and concomitant medications or significant non-drug therapies. Evaluations of routine blood chemistries, blood counts with white cell differential and urine analyses, physical examinations, electrocardiograms (ECGs), and monitoring of vital signs will be performed at regular intervals.

[5] = LCZ696 regimen vs olmesartan regimen, 52 weeks
[6] = Week 52 endpoint (LOCF), FAS, add-on amlodipine/HCTZ allowed
[7] = LCZ696 regimen vs olmesartan regimen, 12 weeks, P < 0.001

SMILES: CCCCC(=O)N(Cc1ccc(-c2ccccc2-c2nn[n-]n2)cc1)C(C(=O)[O-])C(C)C.CCCCC(=O)N(Cc1ccc(-c2ccccc2-c2nn[n-]n2)cc1)C(C(=O)[O-])C(C)C.CCOC(=O)C(C)CC(Cc1ccc(-c2ccccc2)cc1)NC(=O)CCC(=O)[O-].CCOC(=O)C(C)CC(Cc1ccc(-c2ccccc2)cc1)NC(=O)CCC(=O)[O-].O.O.O.O.O.[Na+].[Na+].[Na+].[Na+].[Na+].[Na+] [LCZ696, trisodium [3-((1S,3R)-1-biphenyl-4-ylmethyl-3-ethoxycarbonyl-1-butylcarbamoyl) propionate-(S)-3′-methyl-2′-(pentanoyl{2″-(tetrazol-5-ylate)biphenyl-4′-ylmethyl}amino)butyrate]hemipentahydrate]
- lowering of CASP and CPP vs olmesartan 40 mg/day ([1]; LCZ696 400 mg/day, after 12 weeks of monotherapy): to a greater extent than olmesartan
- Between-treatment difference, mscDBP, 12 weeks ([1]; LCZ696 regimen vs olmesartan regimen, 12 weeks): −1.1 (0.90) mmHg
- Between-treatment difference, mscDBP, 52 weeks [1, 5]: −0.7 (0.86) mmHg
- LSM difference in change from baseline (SE), mean CPP, LCZ696 vs Olmesartan ([1]; Week 12 endpoint, FAS, ANCOVA, p=0.012): −2.45 mmHg and −2.45 (0.96) mmHg
- LSM change from baseline (SE) in mean CPP at Week 12 endpoint ([1]; Week 12 endpoint, FAS, monotherapy): −6.41 mmHg and −6.41 (0.69) mmHg
- LSM change from baseline (SE) in mean CASP at Week 12 endpoint ([1]; Week 12 endpoint, FAS, monotherapy, LCZ696 400 mg/day, olmesartan 40 mg/day): −12.57 mmHg and −12.57 (1.01) mmHg
- LSM change from baseline (SE) in mean CASP at Week 52 endpoint [1, 6]: −16.18 mmHg and −16.18 (0.96) mmHg
- LSM change from baseline (SE) in mean CPP at Week 52 endpoint [1, 6]: −7.16 mmHg and −7.16 (0.69) mmHg
- LSM difference in change from baseline (SE), mean CASP, LCZ696 vs Olmesartan ([1]; Week 52 endpoint (LOCF), FAS, p=0.271): −1.49 (1.35) mmHg
- LSM difference in change from baseline (SE), mean CPP, LCZ696 vs Olmesartan ([1]; Week 52 endpoint (LOCF), FAS, p=0.598): −0.51 (0.97) mmHg
- Change from baseline to 12 weeks, mscDBP ([1]; mean sitting central diastolic BP, 12 weeks): −6.1 mmHg
- Change from baseline to 52 weeks, mscDBP ([1]; mean sitting central diastolic BP, 52 weeks): −8.8 mmHg
- Change from baseline to 12 weeks, mscMAP ([1]; mean sitting central mean arterial pressure, 12 weeks, mean): −8.0 mmHg
- Change from baseline to 52 weeks, mscMAP ([1]; mean sitting central mean arterial pressure, 52 weeks, mean): −9.6 mmHg
- Between-treatment difference, msMAP, 12 weeks [2, 7]: −3.6 (0.95)* mmHg
- Between-treatment difference, msMAP, 52 weeks [2, 5]: −1.5 (0.89) mmHg
- Change from baseline to 12 weeks, msDBP ([2]; mean sitting diastolic BP, 12 weeks, mean): −5.3 mmHg
- Change from baseline to 52 weeks, msDBP ([2]; mean sitting diastolic BP, 52 weeks, mean): −8.1 mmHg
- Change from baseline to 12 weeks, msMAP ([2]; mean sitting mean arterial pressure, 12 weeks): −12.2 mmHg
- Change from baseline to 52 weeks, msMAP ([2]; mean sitting mean arterial pressure, 52 weeks): −13.9 mmHg
- Change from baseline to 12 weeks, msPP ([2]; mean sitting pulse pressure, 12 weeks, mean): −8.0 mmHg
- Change from baseline to 52 weeks, msPP ([2]; mean sitting pulse pressure, 52 weeks, mean): −9.1 mmHg
- Change from baseline to 12 weeks, msSBP ([2]; mean sitting systolic BP, 12 weeks, mean): −13.3 mmHg
- Change from baseline to 52 weeks, msSBP ([2]; mean sitting systolic BP, 52 weeks, mean): −17.2 mmHg
- Between-treatment difference, maDBP, 12 weeks [3, 7]: −2.0 (0.51)* mmHg
- Between-treatment difference, maPP, 12 weeks [3, 7]: −2.1 (0.49)* mmHg
- Between-treatment difference, maSBP, 12 weeks [3, 7]: −4.1 (0.87)* mmHg
- Between-treatment difference, macSBP, 12 weeks [3, 7]: −3.4 (0.84)* mmHg
- Between-treatment difference, maDBP, 52 weeks [3, 5]: −0.4 (0.48) mmHg
- Between-treatment difference, maPP, 52 weeks [3, 5]: 0.6 (0.50) mmHg
- Between-treatment difference, maSBP, 52 weeks [3, 5]: 0.2 (0.82) mmHg
- Between-treatment difference, macSBP, 52 weeks [3, 5]: 0.6 (0.79) mmHg
- 24-hour ambulatory SBP compared to olmesartan ([3]; after 12-week monotherapy): lowered 24-hour ambulatory SBP compared to olmesartan
- Change from baseline to 12 weeks, macDBP ([3]; mean ambulatory central diastolic BP, 12 weeks, mean): −7.5 mmHg
- Change from baseline to 52 weeks, macDBP ([3]; mean ambulatory central diastolic BP, 52 weeks, mean): −9.0 mmHg
- Change from baseline to 12 weeks, macMAP ([3]; mean ambulatory central mean arterial pressure, 12 weeks, mean): −9.0 mmHg
- Change from baseline to 52 weeks, macMAP ([3]; mean ambulatory central mean arterial pressure, 52 weeks, mean): −10.33 mmHg
- Change from baseline to 12 weeks, macPP ([3]; mean ambulatory central pulse pressure, 12 weeks, mean): −4.4 mmHg
- Change from baseline to 52 weeks, macPP ([3]; mean ambulatory central pulse pressure, 52 weeks, mean): −4.1 mmHg
- Change from baseline to 12 weeks, macSBP ([3]; mean ambulatory central systolic BP, 12 weeks): −12.1 mmHg
- Change from baseline to 52 weeks, macSBP ([3]; mean ambulatory central systolic BP, 52 weeks): −13.0 mmHg
- Change from baseline to 12 weeks, maDBP ([3]; mean ambulatory diastolic BP, 12 weeks): −7.4 mmHg
- Change from baseline to 52 weeks, maDBP ([3]; mean ambulatory diastolic BP, 52 weeks): −8.8 mmHg
- Change from baseline to 12 weeks, maMAP ([3]; mean ambulatory mean arterial pressure, 12 weeks, mean): −10.0 mmHg
- Change from baseline to 52 weeks, maMAP ([3]; mean ambulatory mean arterial pressure, 52 weeks, mean): −11.2 mmHg
- Change from baseline to 12 weeks, maPP ([3]; mean ambulatory pulse pressure, 12 weeks): −5.8 mmHg
- Change from baseline to 52 weeks, maPP ([3]; mean ambulatory pulse pressure, 52 weeks): −5.3 mmHg
- Change from baseline to 12 weeks, maSBP ([3]; mean ambulatory systolic BP, 12 weeks): −13.2 mmHg
- Change from baseline to 52 weeks, maSBP ([3]; mean ambulatory systolic BP, 52 weeks): −14.1 mmHg
- percentage of patients who discontinued the study [4]: 19.7%
- percentage of patients who discontinued the study due to an AE [4]: 6.6%
- percentage of patients with AEs [4]: 57.6%
- percentage of patients with SAEs [4]: 7.0%
- tolerability of the regimen [4]: well tolerated
